Results from patent publication US4469686A, “Substituted phosphinic acids” (priority 1980, dated 1984).

What was measured:
[1] = Test for cupriuretic activity; type: in vivo; conditions: at 1 mM/kg
From the text: (B) Test for cupriuretic activity:
This test is relevant to Wilson's disease. The method followed is the method of K. GIBBS and J. M. WALSHE (Clinical Science and Molecular Medicine, 1977, 53, 317-20).

[2] = Test for catalytic dismutation of superoxide; type: biochemical; conditions: test compound: copper glycine ratio of 4:1; read-out: Catalysis of superoxide dismutation, I50
From the text: (A) Test for catalytic dismutation of superoxide:
This test is relevant to degenerative joint disease and inflammation. The method followed is the method of M. YOUNES and U. WESER [Biochem.Biophys.Res.Commun. 1977, 78 (4) 1247-53] using a test compound: copper glycine ratio of 4:1.

[3] = tested on: mice; test: Acute toxicity studies in mice; type: in vivo; conditions: i.p.
Experimental: Acute toxicity studies in mice have shown that the minimum single dose to cause death is >2400 mg/kg i.p. for compound B and ≤400 mg/kg i.p. for DL-penicillamine.

Structure (SMILES): CC(C)(S)C(N)P(=O)(O)O (racemic) [Compound A, DL-(1-Amino-2-mercapto-2-methylpropyl)phosphonic acid]
- Cupriuretic activity, % Increase [1]: 139%
- IC50 [2]: 1200 nM

Structure (SMILES): CC(C)(S)C(N)[PH](=O)O (racemic) [Compound B, DL-(1-Amino-2-mercapto-2-methylpropyl)phosphinic acid]
- Cupriuretic activity, % Increase [1]: 397%
- minimum single dose to cause death [3]: > 2400 mg/kg
- IC50 [2]: 1200 nM

Structure (SMILES): CC1(C)NC(P(=O)(O)O)C(C)(C)S1 (racemic) [Compound C, DL-2,2,5,5-Tetramethyl-4-thiazolidinyl)phosphonic acid]
- Cupriuretic activity, % Increase [1]: 122%

Structure (SMILES): CC1(C)NC([PH](=O)O)C(C)(C)S1 (racemic) [Compound D, DL-(2,2,5,5-Tetramethyl-4-thiazolidinyl)phosphinic acid]
- Cupriuretic activity, % Increase [1]: 308%

Structure (SMILES): CC(C)(S)C(N)C(=O)O (racemic) [DL-penicillamine, reference compound]
- minimum single dose to cause death [3]: ≤ 400 mg/kg
